Patent publication US12533353B2, “Methods of treatment of cancer comprising CDC7 inhibitors” (CARNA BIOSCIENCES, INC., priority 2018, dated 2026)
Values joined by “and” are separate entries in the source; they are usually repeats but may differ in a detail not shown here. Equal values may be shown once. Read-outs that look alike come from different tables or passages of the source.

Tests used:
[1] = In vitro metabolism in hepatocytes; type: in vitro ADME, human
From the text: Eleven metabolites were identified across species, of which 6 occurred in the human matrix. One human-specific metabolite was identified, but only at trace levels. The mouse, rat and dog hepatocyte metabolite profiles contained all the other human metabolites.

[2] = test system: panel of 235 cancer cell lines; experiment: CellTiter-Glo luminescent cell viability assay, 72-hour incubation; type: cell-based
Protocol: The concentration-dependent effect of SRA141 on cell viability was determined in a panel of 235 cancer cell lines, utilizing the CellTiter-Glo™ luminescence assay (Promega) with a 72-hour drug incubation period. The 50% inhibition concentration (IC50) was determined in the cancer cell lines using Cell Titer-Glo® luminescent cell viability assay after incubation with SRA141 at different concentrations.

[3] = test system: MDA-MB-486 breast tumor xenografts; experiment: MDA-MB-486 breast xenograft study; type: in vivo; settings: for tumor growth inhibition: 5 weeks, Day 35
Protocol: Female CB-17 SCID mice bearing MDA-MB-486 breast tumor xenografts were orally administered (i) vehicle control (0.1 M HCl/0.5% MC400) or (ii) SRA141 30 or 60 mg/kg BID for 5 weeks (n=10 per treatment group). Tumor growth inhibition was calculated on Day 35, the final day of the study.

[4] = test system: MV-4-11 cancer cells; experiment: MV-4-11 human leukemia systemic survival study; type: in vivo, mouse
Protocol: Female NOD SCID mice intravenously inoculated with MV-4-11 cancer cells were administered (i) vehicle control (0.1 M HCl/0.5% MC400, oral) or (ii) SRA141 initially at 60 mg/kg BID for 5 consecutive days of a 7-day cycle from Days 0 to 21, and then due to significant body weight loss, at 40 mg/kg BID on the same schedule from Days 22 to 73 (n=10 per treatment group). Survival was the only efficacy endpoint in this study, given the systemic nature of the cancer model.

[5] = Absolute oral bioavailability; settings: in vivo, free base suspension, fasted, range given for mouse, rat and dog together, read-out: absolute oral bioavailability (% F)
[6] = target: Cdc7 (Homo sapiens, UniProt O00311); experiment: In vitro biochemical kinase assay
Protocol: Inhibition of Cdc7 by SRA141 was measured using in vitro kinase assays.

[7] = test system: SW620 tumor xenografts; experiment: SW620 colorectal xenograft study (mouse); type: in vivo; settings: for tumor growth inhibition: Day 21
Protocol: Female BALB/c mice bearing SW620 tumor xenografts were orally administered (i) vehicle (0.1 M HCl/0.5% MC400) or (ii) SRA141 60 mg/kg three times a day (TID) for 4 consecutive days followed by a 2-day dosing holiday for 21 days or (iii) SRA141 120 mg/kg QD for 21 days (n=10 per treatment group). Tumor growth inhibition was calculated on Day 21, the final day of the study. All vehicle control animals remained on study on Day 21.

[8] = target: OATP1B3 (Homo sapiens, UniProt Q9NPD5); experiment: In vitro transporter inhibition; type: in vitro ADME
[9] = test system: bacterial reverse mutation; experiment: In vitro bacterial reverse mutation assay
From the text: SRA141 was negative for both mutagenicity and clastogenicity in in vitro bacterial reverse mutation and human lymphocyte chromosomal aberration assays.

[10] = 4-cycle repeat oral dose toxicology study (5 days on/2 days off); type: in vivo, rat; settings: for Cmax / AUC(0-t): plasma, po; for AUC(0-t): read-out: AUC24 h
Protocol: Toxicology studies evaluating SRA141 were conducted in rat and dog following single and repeat oral dosing for up to 4 cycles (5 days on/2 days off per cycle). In addition, the potential genetic toxicity of SRA141 was evaluated in vitro.

[11] = Absolute oral bioavailability; settings: monkey, in vivo, free base suspension, read-out: absolute oral bioavailability (% F)
[12] = test system: phosphorylated MCM2 (Serine 53); experiment: Rat Colo-205 xenograft PK/PD, single dose, tumors at 12 hours; type: in vivo
Protocol: (§1) Colo-205 tumor-bearing rats were treated with a single dose of SRA141 or vehicle and the tumors were collected 12 hours later. Tumor homogenates prepared from three animals per treatment group were analyzed by LC/MSMS or Western blot.
(§2) Tumoral inhibition of pMCM2 following SRA141 treatment was also determined in female Rowett nude rats bearing subcutaneous Colo-205 tumors. Twelve hours following a single oral dose of SRA141 (75 or 150 mg/kg), animals were terminated, and tumors were sampled for analysis (n=3 per group). Control animals were administered the same vehicle used in the Colo-205 rat model (see Example 5; n=3 per group). […] Twelve hours after a single dose of SRA141, pMCM2 was inhibited approximately 50% to 60% of control (FIG. 22).

[13] = as above; type: in vivo; settings: for SRA141 tumor concentration: 12 hours
Protocol: as §1, §2

[14] = In vitro plasma protein binding; type: in vitro ADME; settings: range given for mouse and dog together
[15] = target: OATP1B1 (Homo sapiens, UniProt Q9Y6L6); experiment: In vitro transporter inhibition; type: in vitro ADME
[16] = test system: AM7577; experiment: AML PDX ex vivo 3D culture, 5 days; type: cell-based
Protocol: (§3) The activity of SRA141 was investigated in in vitro and ex vivo three-dimensional (3D) cultures prepared from three AML cell lines (EOL-1, Molm-16 and MV-4-11) and three AML PDX models (AM5512, AM7440 and AM7577), respectively. Tumor cultures were treated with SRA141 (0.08 to 33 μM) for 5 days.

[17] = test system: AM7440; experiment: AML PDX ex vivo 3D culture, 5 days; type: cell-based
Protocol: as §3

[18] = test system: AM5512; experiment: AML PDX ex vivo 3D culture, 5 days; type: cell-based
Protocol: as §3

[19] = 60 then 40 mg/kg BID, 5 days of 7-day cycle
[20] = 50 mg/kg/day, at NOAEL, rat, female
[21] = 50 mg/kg/day, at NOAEL, rat, male
[22] = 100 mg/kg/day, at MTD/HNSTD, rat, female
[23] = 100 mg/kg/day, at MTD/HNSTD, rat, male

Cdc7, sequence (O00311 whole entry): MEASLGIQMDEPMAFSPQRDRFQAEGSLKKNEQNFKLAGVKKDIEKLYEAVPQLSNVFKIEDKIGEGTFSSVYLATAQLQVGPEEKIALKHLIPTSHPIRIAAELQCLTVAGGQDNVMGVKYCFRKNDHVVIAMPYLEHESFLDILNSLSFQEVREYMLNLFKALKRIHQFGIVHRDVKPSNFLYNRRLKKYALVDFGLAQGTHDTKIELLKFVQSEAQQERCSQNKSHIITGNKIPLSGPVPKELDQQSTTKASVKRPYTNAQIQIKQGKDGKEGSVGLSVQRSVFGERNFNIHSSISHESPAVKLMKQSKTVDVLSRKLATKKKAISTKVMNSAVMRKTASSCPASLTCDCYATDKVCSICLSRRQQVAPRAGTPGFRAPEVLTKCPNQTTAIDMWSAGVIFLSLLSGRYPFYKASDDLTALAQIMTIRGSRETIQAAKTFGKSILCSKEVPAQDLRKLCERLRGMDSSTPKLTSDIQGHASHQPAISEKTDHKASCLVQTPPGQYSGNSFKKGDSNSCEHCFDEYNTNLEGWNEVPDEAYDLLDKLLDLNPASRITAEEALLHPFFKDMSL
Cdc7, sequence (Q9UBU7 whole entry partner): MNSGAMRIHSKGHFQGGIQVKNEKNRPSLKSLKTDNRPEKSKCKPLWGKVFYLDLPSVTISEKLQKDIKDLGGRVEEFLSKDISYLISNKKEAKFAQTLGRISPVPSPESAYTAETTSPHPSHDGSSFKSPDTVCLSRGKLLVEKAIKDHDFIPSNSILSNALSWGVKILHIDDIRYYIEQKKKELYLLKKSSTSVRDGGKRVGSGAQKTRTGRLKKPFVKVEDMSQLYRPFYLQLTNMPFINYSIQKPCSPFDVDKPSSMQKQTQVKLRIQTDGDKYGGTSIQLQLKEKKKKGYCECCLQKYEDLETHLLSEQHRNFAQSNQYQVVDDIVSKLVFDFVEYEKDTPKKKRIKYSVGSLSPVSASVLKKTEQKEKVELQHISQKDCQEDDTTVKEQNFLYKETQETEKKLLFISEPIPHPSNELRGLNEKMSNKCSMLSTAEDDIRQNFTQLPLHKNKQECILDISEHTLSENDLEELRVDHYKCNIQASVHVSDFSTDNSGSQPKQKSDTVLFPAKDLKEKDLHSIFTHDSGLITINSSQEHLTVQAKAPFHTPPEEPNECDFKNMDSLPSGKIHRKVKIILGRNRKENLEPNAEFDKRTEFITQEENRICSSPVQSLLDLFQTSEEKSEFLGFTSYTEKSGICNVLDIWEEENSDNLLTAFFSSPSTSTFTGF
OATP1B1, sequence (Q9Y6L6 whole entry): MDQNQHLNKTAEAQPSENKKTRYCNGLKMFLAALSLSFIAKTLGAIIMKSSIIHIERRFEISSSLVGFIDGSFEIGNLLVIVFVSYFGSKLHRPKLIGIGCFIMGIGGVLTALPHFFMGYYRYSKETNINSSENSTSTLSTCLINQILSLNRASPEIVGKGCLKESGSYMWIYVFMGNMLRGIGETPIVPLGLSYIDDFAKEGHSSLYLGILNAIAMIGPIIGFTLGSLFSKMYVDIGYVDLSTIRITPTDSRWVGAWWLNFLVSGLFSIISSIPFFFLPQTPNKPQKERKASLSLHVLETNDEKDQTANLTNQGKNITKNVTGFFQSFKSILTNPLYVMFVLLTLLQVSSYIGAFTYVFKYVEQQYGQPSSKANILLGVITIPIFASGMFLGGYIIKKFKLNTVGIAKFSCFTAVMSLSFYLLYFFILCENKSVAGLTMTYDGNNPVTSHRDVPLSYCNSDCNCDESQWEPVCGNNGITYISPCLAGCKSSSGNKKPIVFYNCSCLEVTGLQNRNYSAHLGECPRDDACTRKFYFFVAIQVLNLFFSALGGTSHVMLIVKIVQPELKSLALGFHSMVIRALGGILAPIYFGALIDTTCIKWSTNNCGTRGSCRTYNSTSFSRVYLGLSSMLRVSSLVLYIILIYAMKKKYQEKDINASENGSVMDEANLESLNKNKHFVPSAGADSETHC
OATP1B3, sequence (Q9NPD5 whole entry): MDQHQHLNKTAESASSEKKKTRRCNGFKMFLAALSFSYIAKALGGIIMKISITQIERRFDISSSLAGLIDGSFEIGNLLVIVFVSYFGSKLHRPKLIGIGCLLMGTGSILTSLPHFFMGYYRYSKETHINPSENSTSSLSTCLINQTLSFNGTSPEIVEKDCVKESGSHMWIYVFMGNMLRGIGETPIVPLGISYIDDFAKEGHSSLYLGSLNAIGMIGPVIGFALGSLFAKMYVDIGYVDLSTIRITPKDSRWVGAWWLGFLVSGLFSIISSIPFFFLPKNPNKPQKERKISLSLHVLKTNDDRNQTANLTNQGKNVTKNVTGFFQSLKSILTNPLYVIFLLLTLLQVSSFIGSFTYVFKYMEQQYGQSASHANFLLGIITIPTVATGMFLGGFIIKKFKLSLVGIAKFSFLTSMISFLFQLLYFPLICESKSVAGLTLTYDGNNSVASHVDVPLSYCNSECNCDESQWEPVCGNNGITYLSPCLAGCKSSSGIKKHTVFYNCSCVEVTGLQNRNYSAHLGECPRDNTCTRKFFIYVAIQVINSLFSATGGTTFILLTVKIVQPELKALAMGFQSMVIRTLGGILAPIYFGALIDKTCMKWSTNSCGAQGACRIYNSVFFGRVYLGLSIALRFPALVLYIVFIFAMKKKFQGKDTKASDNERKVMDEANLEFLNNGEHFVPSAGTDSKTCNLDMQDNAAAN

In the case of `CCOC(=O)C1=C(NN2CCN(CC(F)(F)F)CC2)O/C(=C\c2c[nH]c3ncccc23)C1=O` [SRA141], the metabolic stability ([1]; human hepatocytes) is reported as “favorable metabolic stability”, the “number of metabolites in the human matrix” value ([1]; of eleven across species) is reported as 6 and the “activity in hematologic-derived cell lines” value ([2]; 59 hematologic cancer cell lines) is reported as “Significant activity”. The IC50 ([2]; solid tumor cell lines of bladder, sarcoma, colon and cecum, renal, head-and-neck, melanoma, gastric lineages) was less than 3 µM, the tolerability ([3]; 30 mg/kg BID) was “well tolerated” and the tumor growth inhibition ([3]; 30 mg/kg BID) was 26%. The “mice with maximum body weight loss greater than 20%” value ([3]; 60 mg/kg BID) was “Six of 10”, the tumor growth inhibition ([3]; 60 mg/kg BID) was 53% and the “median survival, all animals including premature decedents” value [4, 19] was 35 days. For the same compound, the “median survival, premature decedents censored” value [4, 19] was “greater than 99 days”, the “mice with body weight loss greater than 20%” value ([4]; SRA141-treated mice) was “One of ten” and the bioavailability [5] was 31 to 54%. The IC50 ([6]; no pre-incubation) was 0.004 µM, the IC50 ([6]; pre-incubation with Cdc7 enzyme for 1 hour) was 0.0014 µM and the “mice with maximum body weight loss greater than 20%” value ([7]; 60 mg/kg TID) was “Four of 10”. For the same compound, the tumor growth inhibition ([7]; 60 mg/kg TID, 4 days on/2 days off) was 78%, the “mice meeting the 20% weight loss threshold” value ([7]; 120 mg/kg QD) was “None” and the tumor growth inhibition ([7]; 120 mg/kg QD) was 73%. For the same compound, the inhibition at 10 µM [8] was greater than 50%, the mutagenicity [9] was “negative” and the MTD at 4 cycles (5 days on/2 days off) ([10]; in vivo, oral, rat (MTD), read-out: MTD/HNSTD Dose) was 100 mg/kg/day. It also gave a Cmax [10, 20] of 711 ng/mL, an AUC(0-t) [10, 20] of 8550 ng·h/mL and a Cmax [10, 21] of 289 ng/mL. The AUC(0-t) [10, 21] was 2870 ng·h/mL, the Cmax [10, 22] was 1610 ng/mL and the AUC(0-t) [10, 22] was 29000 ng·h/mL. The Cmax [10, 23] was 390 ng/mL, the AUC(0-t) [10, 23] was 5130 ng·h/mL and the “NOAEL Dose” value ([10]; rat) was 300 mg/m2/day. The “MTD/HNSTD Dose” value ([10]; rat (MTD)) was 600 mg/m2/day, the “potential target organs for SRA141-related toxicity” value ([10]; rat and dog repeat-dose studies together) was “gallbladder/biliary system, lymphoid tissues (spleen, thymus, lymph node and GALT), bone marrow, liver, kidney, male and female reproductive tract, peripheral leukocytes, and salivary gland” and the NOAEL at 4 cycles (5 days on/2 days off) ([10]; rat, in vivo, oral) was 50 mg/kg/day. For the same compound, the bioavailability [11] was 1 to 33%, the “decrease in phosphorylated MCM2 (Serine 53) compared to vehicle” value ([12]; at tumor concentration of approximately 1.2 μM, 12 hours) was roughly 50% and the “intra-tumoral tissue concentration sufficient to inhibit pMCM2 by 50%” value ([12]; rat Colo-205 tumors) was 1 μM. The SRA141 tumor concentration ([13]; 75 mg/kg single oral dose) was roughly 0.5 µg/mL, the SRA141 tumor concentration ([13]; 150 mg/kg single oral dose) was roughly 0.9 µg/mL and the concentration at 12 h ([13]; female, Rowett nude, rat, tumor, oral, single dose, tumors collected 12 hours later, read-out: tumor SRA141 concentration) was roughly 1200 nM. For the same compound, the fraction unbound [14] was 0.23 to 0.42, the inhibition at 10 µM [15] was greater than 50% and the IC50 [16] was 0.15 µM. The IC50 [17] was 1.61 µM and the IC50 [18] was 3.2 µM and 3.16 µM.
